Source: paper PMC9653995, “New Positive TRPC6 Modulator Penetrates Blood–Brain Barrier, Eliminates Synaptic Deficiency and Restores Memory Deficit in 5xFAD Mice” (International Journal of Molecular Sciences, 2022)

Test system: Aβ42-treated hippocampal neurons
Test: In vitro amyloid synaptotoxicity model: mushroom spine percentage in primary hippocampal neuronal cultures
Assay type: cell-based, mouse
Conditions: 24 h, mean ± SEM
Procedure: The average percentages of mushroom spines (MS%) in each experimental condition are presented as mean ± SEM (n = 20–30 neurons for each group from three batches of cultures). We observed that 24-h incubation in the presence of 1 µM and 100 nM of C20 rescues mushroom spine loss in Aβ42-treated hippocampal neurons. C20 lost its activity at a 10 nM concentration (Figure 2B, mushroom spine percentage (MS%) in the Control, 29.07 ± 1.15%; Control + C20 [1 µM], 31.32 ± 1.46%; Control + C20 [100 nM], 30.11 ± 0.86%; Control + C20 [10 nM]; […]; Aβ42, 19.82 ± 1.13%; Aβ42 + C20 [1 µM], 29.00 ± 1.94%; Aβ42 + C20 [100 nM], 27.28 ± 1.81%; Aβ42 + C20 [10 nM], 18.64 ± 1.63%; two-way ANOVA following Tukey’s multiple comparisons test, P values are indicated in the Figure).
Primary hippocampal neuronal cultures were prepared as previously described. Briefly, hippocampuses from postnatal day 0–2 FVB/NJ mice were removed and cut into small pieces in ice-cold buffer (1% 10x CMF-HBSS (Gibco, Grand Island, NY, USA; #14185), 1% Pen Strep (Gibco, #15140), 16 MM HEPES (Sigma, St Louis, MO, USA; #H3375), 10 MM NaHCO3 (Sigma, #S5761); pH = 7.2). Cell tissue was dissociated by trituration with 5 mg/mL DNase I solution (Sigma, #DN-25) after papain (Worthington, Columbus, OH, USA; #LK003176) digestion for 30 min at 37 °C. Hippocampal neurons were plated onto poly-D-lysine (Sigma, #P0899) coated 12 mm glass coverslips (Thermo Scientific, Braunschweig, Germany; #CB00120RA1) in 24-well dishes. in Neurobasal/B-27 with the addition of insulin-transferrin-sodium selenite (Sigma-Aldrich). Cells were grown in 1 mL of Neurobasal medium (Gibco, #10888) supplemented with 1% FBS (Gibco, #10500), 2% 50xB27 (Gibco, #17504), 0.05 MM L- Glutamine (Gibco, #250030). The cultures were maintained at 37 °C in a 5% CO2 incubator. Half of the medium was replaced with a new culture medium at DIV 7 and DIV 14. At DIV 14, neurons were fixed for 10 min with 4% paraformaldehyde sucrose in PBS at room temperature.
Neurons were transfected using the calcium phosphate method at DIV 7 as previously described with alterations that were described earlier. The transfection kit was obtained from Clontech (TAKARA Biotechnology, Mountain View, CA, USA; #631312).
Aβ42 peptides were purchased from AnaSpec (Anaspec, Freemont, CA, USA; #AS-20276). Stock solution [1 mg/mL] was prepared as described earlier and stored at −20 °C. Working Aβ42 solution was made immediately prior to treatment of the cells by diluting the stock concentration to 6.6 µM final Aβ peptide concentrations in Neurobasal. The working solution was incubated at +4 °C for 24 h to obtain the oligomeric conditions as described. […]

COc1cc2c(cc1OC)C(c1cc3ccccc3oc1=O)=NC(C)(C)C2 [C20, 3-(3-,4-Dihydro-6,7-dimethoxy-3,3-dimethyl-1-isoquinolinyl)-2H-1-benzopyran-2-one]
mushroom spine percentage (MS%) (Aβ42-treated cultures + 10 nM, Aβ42 alone 19.82 ± 1.13%): 18.64 ± 1.63% | mushroom spine percentage (MS%) (Aβ42-treated cultures + 100 nM, Aβ42 alone 19.82 ± 1.13%): 27.28 ± 1.81% | mushroom spine percentage (MS%) (Aβ42-treated cultures + 1 µM, Aβ42 alone 19.82 ± 1.13%): 29.00 ± 1.94% | mushroom spine percentage (MS%) (Control cultures + 100 nM, Control 29.07 ± 1.15%): 30.11 ± 0.86%
